Measured values reported in ChEMBL document CHEMBL4813945, “Discovery and development of novel pyrimidine and pyrazolo/thieno-fused pyrimidine derivatives as potent and orally active inducible nitric oxide synthase dimerization inhibitor with efficacy for arthritis” (Eur J Med Chem, 2021).

Columns and labels:
RAW264.7 [1] = assay: Antiinflammatory activity against mouse RAW264.7 cells assessed as inhibition of LPS-induced NO production at 10 uM preincubated for 1 hrs followed by LPS stimulation and measured after 24 hrs by Griess assay relative to control; format: functional; conditions: time 25 hrs
L02 = assay: Antiinflammatory activity against human L02 assessed as inhibition of LPS-induced NO production preincubated for 1 hrs followed by LPS stimulation and measured after 24 hrs by Griess assay relative to control; format: functional, cell-based
RAW264.7 [2] = assay: Cytotoxicity against mouse RAW264.7 cells at 20 uM measured after 24 hrs; format: cell-based; conditions: raw264.7, 24 h

In the case of `Brc1cccc(Nc2nc(/C=C/c3ccccc3)nc3ccsc23)c1`, the inhibition at 10 µM (RAW264.7 [1]) is reported as 28.8%, the IC50 (L02) is reported as greater than 1000 µM and the Activity (RAW264.7 [2]) is reported as “Non-Toxic”.
`CNc1nc(/C=C/c2ccco2)nc2ccsc12` was tested, and the inhibition at 10 µM (RAW264.7 [1]) was 29.1%, the IC50 (L02) was 811 µM and the Activity (RAW264.7 [2]) was “Non-Toxic”.
For `Fc1ccc(CNc2nc(/C=C/c3ccccc3)nc3ccsc23)cc1`, the inhibition at 10 µM (RAW264.7 [1]) was 23.4%, the IC50 (L02) was greater than 1000 µM and the Activity (RAW264.7 [2]) was “Non-Toxic”.
In the case of `COc1cc(/C=C/c2nc(OCc3ccccc3)c3sccc3n2)cc(OC)c1OC`, the inhibition at 10 µM (RAW264.7 [1]) is reported as 33.8%, the IC50 (L02) is reported as greater than 1000 µM and the Activity (RAW264.7 [2]) is reported as “Non-Toxic”.
In the case of `COc1cc(/C=C/c2nc(NC(C)C)c3sccc3n2)cc(OC)c1OC`, the inhibition at 10 µM (RAW264.7 [1]) is reported as 59.1%, the IC50 (L02) is reported as greater than 1000 µM and the Activity (RAW264.7 [2]) is reported as “Non-Toxic”.
`COc1ccc(Nc2nc(/C=C/c3ccccc3)nc3ccsc23)cc1` was tested, and the inhibition at 10 µM (RAW264.7 [1]) was 21.9%, the IC50 (L02) was greater than 1000 µM and the Activity (RAW264.7 [2]) was “Non-Toxic”.
With `CC(C)Nc1nc(/C=C/c2ccccc2)nc2ccsc12` the inhibition at 10 µM (RAW264.7 [1]) was 22.9%, the IC50 (L02) was greater than 1000 µM and the Activity (RAW264.7 [2]) was “Non-Toxic”.
For `CN1CCN(c2nc(/C=C/c3ccco3)nc3ccsc23)CC1`, the inhibition at 10 µM (RAW264.7 [1]) was 43.9%, the IC50 (L02) was greater than 1000 µM and the Activity (RAW264.7 [2]) was “Non-Toxic”.
For `CC(C)CNc1nc(/C=C/c2ccccc2)nc2ccsc12`, the inhibition at 10 µM (RAW264.7 [1]) was 25%, the IC50 (L02) was greater than 1000 µM and the Activity (RAW264.7 [2]) was “Non-Toxic”.
With `CCCc1nn(C)c2c(NC3CC3)nc(/C=C/c3nc(C)c(C)nc3C)nc12` the inhibition at 10 µM (RAW264.7 [1]) was 48.4%, the IC50 (L02) was 706 µM and the Activity (RAW264.7 [2]) was “Non-Toxic”.
With `CCCc1nn(C)c2c(NCc3ccc(F)cc3)nc(/C=C/c3cccnc3)nc12` the inhibition at 10 µM (RAW264.7 [1]) was 61.3%, the IC50 (L02) was 940 µM and the Activity (RAW264.7 [2]) was “Non-Toxic”.
In the case of `Fc1ccc(CNc2nc(/C=C/c3ccco3)nc3ccsc23)cc1`, the inhibition at 10 µM (RAW264.7 [1]) is reported as 59.2%, the IC50 (L02) is reported as greater than 1000 µM and the Activity (RAW264.7 [2]) is reported as “Non-Toxic”.
In the case of `COc1cc(/C=C/c2nc(O)nc(NC(C)C)n2)cc(OC)c1OC`, the inhibition at 10 µM (RAW264.7 [1]) is reported as 34%, the IC50 (L02) is reported as less than 40 µM and the Activity (RAW264.7 [2]) is reported as “Non-Toxic”.
`CCCc1nn(C)c2c(NCCc3cccc(Cl)c3)nc(/C=C/c3cccnc3)nc12` was tested, and the inhibition at 10 µM (RAW264.7 [1]) was 66.7%, the IC50 (L02) was greater than 1000 µM and the Activity (RAW264.7 [2]) was “Non-Toxic”.
In the case of `Clc1ccccc1CNc1nc(/C=C/c2ccccc2)nc2ccsc12`, the inhibition at 10 µM (RAW264.7 [1]) is reported as 35.2%, the IC50 (L02) is reported as greater than 1000 µM and the Activity (RAW264.7 [2]) is reported as “Non-Toxic”.
For `COc1cc(/C=C/c2nc(O)nc(NCCc3ccccc3)n2)cc(OC)c1OC`, the inhibition at 10 µM (RAW264.7 [1]) was 57%, the IC50 (L02) was less than 40 µM and the Activity (RAW264.7 [2]) was “Non-Toxic”.
With `CN(C)c1nc(/C=C/c2ccccc2)nc2ccsc12` the inhibition at 10 µM (RAW264.7 [1]) was 3.57%, the IC50 (L02) was greater than 1000 µM and the Activity (RAW264.7 [2]) was “Non-Toxic”.
`COc1cc(/C=C/c2nc(NCCc3ccc(F)cc3)c3sccc3n2)cc(OC)c1OC` was tested, and the inhibition at 10 µM (RAW264.7 [1]) was 26.9%, the IC50 (L02) was less than 40 µM and the Activity (RAW264.7 [2]) was “Non-Toxic”.
In the case of `COc1cc(/C=C/c2nc(NCCc3ccccc3)c3sccc3n2)cc(OC)c1OC`, the inhibition at 10 µM (RAW264.7 [1]) is reported as 46.2%, the IC50 (L02) is reported as less than 40 µM and the Activity (RAW264.7 [2]) is reported as “Non-Toxic”.
`COc1cc(/C=C/c2nc(Nc3ccc(C(C)C)cc3)c3sccc3n2)cc(OC)c1OC` was tested, and the inhibition at 10 µM (RAW264.7 [1]) was 13.3%, the IC50 (L02) was 370 µM and the Activity (RAW264.7 [2]) was “Non-Toxic”.
In the case of `COc1cc(/C=C/c2nc(N(C)c3ccccc3)c3sccc3n2)cc(OC)c1OC`, the inhibition at 10 µM (RAW264.7 [1]) is reported as 32.5%, the IC50 (L02) is reported as 767 µM and the Activity (RAW264.7 [2]) is reported as “Non-Toxic”.
`CCCc1nn(C)c2c(NCCc3ccccc3)nc(/C=C/c3ccc[n+]([O-])c3)nc12` was tested, and the inhibition at 10 µM (RAW264.7 [1]) was 72.9%, the IC50 (L02) was 392 µM and the Activity (RAW264.7 [2]) was “Non-Toxic”.
In the case of `C(=C\c1ccco1)/c1nc(NCc2ccccc2)c2sccc2n1`, the inhibition at 10 µM (RAW264.7 [1]) is reported as 64.1%, the IC50 (L02) is reported as greater than 1000 µM and the Activity (RAW264.7 [2]) is reported as “Non-Toxic”.
For `CCCc1nn(C)c2c(NC3CC3)nc(/C=C/c3cccnc3)nc12`, the inhibition at 10 µM (RAW264.7 [1]) was 49.5%, the IC50 (L02) was 261 µM and the Activity (RAW264.7 [2]) was “Non-Toxic”.
For `COc1cc(/C=C/c2nc(N(C)C)c3sccc3n2)cc(OC)c1OC`, the inhibition at 10 µM (RAW264.7 [1]) was 27.2%, the IC50 (L02) was greater than 1000 µM and the Activity (RAW264.7 [2]) was “Non-Toxic”.
`C(=C\c1nc(N2CCOCC2)c2sccc2n1)/c1ccccc1` was tested, and the inhibition at 10 µM (RAW264.7 [1]) was 34.1%, the IC50 (L02) was greater than 1000 µM and the Activity (RAW264.7 [2]) was “Non-Toxic”.
